These results are taken from patent US5252469A, “Process for producing a transglutaminase derived from streptomyces” (Amano Pharmaceutical Co., Ltd., priority 1990, dated 1993).

Peptide text beside a SMILES is read from it. * marks the point of attachment. Cbz = O=C(OCc1ccccc1)*

What all share (assay type): biochemical
For assay [1], the target named is T1, MTGase (transglutaminase of guinea pig liver) (UniProt P08587).
T1 construct: The guinea pig liver-derived transglutaminase was prepared by the method described in Connellan et al; from tissue; host or cells: guinea pig liver
T1 sequence (P08587 2-690 limits assumed): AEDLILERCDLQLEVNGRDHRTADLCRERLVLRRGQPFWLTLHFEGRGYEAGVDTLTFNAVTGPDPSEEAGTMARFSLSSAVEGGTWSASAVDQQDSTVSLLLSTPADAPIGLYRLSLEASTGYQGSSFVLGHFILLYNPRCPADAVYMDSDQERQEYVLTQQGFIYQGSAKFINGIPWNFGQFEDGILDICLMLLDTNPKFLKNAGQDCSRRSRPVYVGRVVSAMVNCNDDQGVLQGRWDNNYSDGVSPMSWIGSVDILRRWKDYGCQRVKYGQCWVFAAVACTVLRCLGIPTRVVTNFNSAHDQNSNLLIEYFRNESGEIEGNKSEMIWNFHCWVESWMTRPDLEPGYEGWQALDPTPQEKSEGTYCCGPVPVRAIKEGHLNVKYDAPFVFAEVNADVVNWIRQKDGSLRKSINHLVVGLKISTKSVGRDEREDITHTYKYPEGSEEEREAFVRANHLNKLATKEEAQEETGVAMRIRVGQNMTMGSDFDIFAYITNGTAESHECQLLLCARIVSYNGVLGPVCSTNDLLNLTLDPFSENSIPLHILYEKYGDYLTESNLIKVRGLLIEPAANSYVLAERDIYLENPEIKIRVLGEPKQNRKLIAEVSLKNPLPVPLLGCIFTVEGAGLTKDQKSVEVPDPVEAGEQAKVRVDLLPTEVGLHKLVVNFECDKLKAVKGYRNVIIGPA
Description: Influence of Ca2+ on activity. As to the method: (§1) Measurement of the activity of BTGase is carried out by performing a reaction using benzyloxycarbonyl-L-glutaminyl glycine and hydroxylamine as substrates in the absence of Ca^2+, forming an iron complex with the resulting hydroxamic acid in the presence of trichloroacetic acid, measuring absorption at 525 nm and determining the amount of hydroxamic acid by a calibration curve to calculate the activity. The BTGase activity is measured by the method described below, unless otherwise indicated.
(§2) To 0.05 ml of an enzyme solution is added 0.5 ml of Reagent A and they are mixed with each other. After reacting at 37° C. for 10 minutes, Reagent B is added thereto to discontinue the reaction and form an Fe complex. Thereafter, absorbance is measured at 525 nm. As a control, absorbance is measured after reacting a previously thermally inactivated enzyme solution in a similar manner and a difference in absorbance between the control and the enzyme solution is measured. Separately, a calibration curve is prepared using L-glutamic acid γ-monohydroxamic acid instead of the enzyme solution, and the amount of hydroxamic acid produced is determined by the difference in absorbance described above. An enzyme activity which produces 1 μmol of hydroxamic acid per 1 minute is defined as 1 unit.
Next, properties of BTGases are compared to those of guinea pig liver-derived transglutaminase. […]

Assay [2] addresses T1, MTGase (transglutaminase of guinea pig liver). Description: Substrate specificity: reaction of synthetic substrates with hydroxylamine. The settings on record: Table 9; CBZ-Gln-Gly = 100. The protocol:
as §1, §2
(§3) Using each BTGase, reactions of various synthetic substrates with hydroxylamine were examined. […] In this case, the concentration of various synthetic substrates is 5 mM. In the table, CBZ, Gln, Gly and Asn are abbreviations for benzyloxycarbonyl group, glutaminyl group, glycyl group and asparaginyl group, respectively.
Next, properties of BTGases are compared to those of guinea pig liver-derived transglutaminase. The guinea pig liver-derived transglutaminase was prepared by the method described in Connellan et al., Journal of Biological Chemistry, Vol. 246, No. 4, pp. 1093-1098 (1971). As will be apparent from Tables 9 and 10, various differences in enzymological properties are noted between transglutaminase of guinea pig liver (hereafter, referred to as MTGase) which has been mainly investigated heretofore and BTGases derived from the genus Streptomyces: in particular, differences are noted in temperature stability, molecular weight, isoelectric point and substrate specificity. Further, a difference is noted in that the BTGases of the present invention act in the presence and absence of Ca^2+. Therefore, the respective enzymes of the present invention are different from MTGase in their properties.

Assay [3] deals with Enzyme No. 83 (transglutaminase of Streptomyces sp No. 83). The assay is described as above. As to the method: as §1, §2, §3
Assay [4] has as its system Enzyme No. 466 (transglutaminase of Streptomyces lavendulae No. 466). Described as above. As to the method:
as §1, §2, §3

Where [5] appears, read: Table 6, synthetic substrate 5 mM, CBZ-Gln-Gly = 100.
The mark [6] stands for this setting: substrate 5 mM, text says BTGase (both enzymes).

On to `[Ca+2].[Cl-].[Cl-]` [CaCl2], for which the “Activity of MTGase (%)” value in assay [1] (1 mM CaCl2) was 39%; in assay [1] (5 mM CaCl2) it was 100%.
Take `NC(=O)CC[C@H](NC(=O)OCc1ccccc1)C(=O)NCC(=O)O` [CBZ--Gln--Gly, benzyloxycarbonylglutaminyl glycine] (Cbz-Gln-Gly-OH): in assay [2], the “Substrate specificity (%), MTGase” value came to 100%. Moreover, the “Substrate specificity, Enzyme No. 83 (reactivity of substrate with hydroxylamine)” value in assay [3] (setting [5]) worked out at 100. The “Substrate specificity (%), Enzyme No. 83” value in assay [3] (Table 9, CBZ-Gln-Gly = 100) was 100%. The “Reactivity of synthetic substrate with Enzyme No. 83 (in words)” value in assay [3] (setting [6]) is on record as “highest”. In addition, in assay [4] (setting [5]), the “Substrate specificity, Enzyme No. 466 (reactivity of substrate with hydroxylamine)” value stood at 100. Moreover, in assay [4] (Table 9, CBZ-Gln-Gly = 100), the “Substrate specificity (%), Enzyme No. 466” value was determined as 100%. In assay [4] (setting [6]), the “Reactivity of synthetic substrate with Enzyme No. 466 (in words)” value is given as “highest”.
